This note sets out measurements from patent US5569599A, “Kerainase from fervidobacterium pennavorans DSM 7003” (Degussa Aktiengesellschaft, priority 1992, dated 1996).

Where a name gives a salt, the structure may show the parent alone. Numbered stars: 1 amine (or outer) side, 2 acyl side, 3 side chain; on linkers, the order of the positions; unused ones are H or OH. Peptide text beside a SMILES is read from it. * marks the point of attachment. pNA = O=[N+]([O-])c1ccc(N*)cc1; Suc = O=C(CCC(=O)[*:2])[*:1]; Cbz = O=C(OCc1ccccc1)*

Holding throughout (assay type): biochemical, Fervidobacterium pennavorans
Assay [1] concerns proteolytic activity of raw extract of strain W. As to the kind of experiment: Influence of metal ions on the proteolytic activity of the raw extract. The note with it: 1 h room temperature with raw extract, then 1 h at 80° C. with 0.25 % substrate pH 10; for ca. % activity 1 mM: metal ion 1 mM; for ca. % activity 5 mM: metal ion 5 mM. As for the experimental part:
Cells of a fermenter culture are macerated (approximately 1 g/20 ml Na-phosphate 50 mM pH 6.8 buffer) by ultrasound. (15 min, 50 %, stage (setting) 6-7, average sonication peak, Branson Sonifier). After microscopic control of successful maceration the raw extract is centrifuged for 20 min, 4° C., 35,000 xg. The supernatant obtained in this manner is used for the enzyme tests.
(§1) 0.45 ml 0.25 % (w/v) casein solution (Hammersten Quality) in an appropriate B & R buffer (Britton & Robinson, J. Chem. Soc. (1931), p. 1456. A solution containing 0.4 M H3 PO4, 0.4M CH3 COOH and 0.4M H3 BO3 in water is adjusted to the desired pH with 0.2 N NaOH) is pipetted on ice with 0.05 ml enzyme-containing specimen into E-Cups and incubated, depending on the activity, up to 60 min at the optimal temperature for the enzyme (80° C.) and the optimal pH (10). The batch is then compounded for stopping off and precipitating the proteins with 0.5 ml 10 % (w/v) trichloroacetic acid (TCA), incubated for 15-30 min at room temperature and then centrifuged for 10 min at 13000 rpms in an Eppendorf centrifuge (Heraeus Sepatech, Osterode). The extinction of the clear supernatant is measured at 280 nm in a quartz cuvette against a non-incubated blank reading.
(§2) In order to determine the enzyme activity, a tyrosine calibration curve is recorded in the range of 0-1 μM/batch. An enzyme activity (1 unit) is defined as that amount which released 1 μmole aromatic amino acids/min. The following computation results from the rise of the calibration curve: [formula] Production of the enzyme composition
The metal ions are dissolved in a buffer, 50 mM Na--P; pH 6.8. 50 μl of this solution are incubated with 50 μl raw extract for 1 h at room temperature, then 400 μl substrate (0.25 %, pH 10) are added and incubated for 1 h at 80° C. TCA precipitation and determination of activity are carried out as described above.

The target of assay [2] is T1, proteases of the enzyme composition from microorganism strain W (Fervidobacterium pennivorans, UniProt Q93LQ6).
T1 construct: casein substrate, pH 10, 80 C
T1 sequence (Q93LQ6 150-699): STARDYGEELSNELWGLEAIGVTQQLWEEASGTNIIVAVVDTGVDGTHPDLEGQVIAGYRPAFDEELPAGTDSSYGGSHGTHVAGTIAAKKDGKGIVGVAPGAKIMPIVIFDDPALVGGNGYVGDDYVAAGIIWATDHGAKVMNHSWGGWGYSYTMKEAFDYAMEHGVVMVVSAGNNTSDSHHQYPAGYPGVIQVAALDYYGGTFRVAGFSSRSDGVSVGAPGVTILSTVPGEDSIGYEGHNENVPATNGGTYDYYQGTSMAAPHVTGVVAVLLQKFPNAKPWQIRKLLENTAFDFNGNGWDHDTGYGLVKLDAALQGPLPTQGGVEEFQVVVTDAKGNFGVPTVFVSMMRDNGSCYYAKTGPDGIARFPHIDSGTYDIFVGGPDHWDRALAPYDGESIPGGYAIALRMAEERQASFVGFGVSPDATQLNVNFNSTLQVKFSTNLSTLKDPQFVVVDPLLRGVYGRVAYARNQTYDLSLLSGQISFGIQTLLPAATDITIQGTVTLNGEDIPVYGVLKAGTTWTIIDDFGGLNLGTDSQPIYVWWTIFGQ
As to the kind of experiment: biochemical. Particulars: for remaining activity at 1000 µM / remaining activity at 5000 µM: 1 h; for remaining activity at 1000 µM: pH 10, read-out: Residual act. (1 mM); for remaining activity at 5000 µM: pH 10, read-out: Residual act. (5 mM); for Residual act. (1 mM): inhibitor 1 mM. As for the experimental part:
as §1, §2
Phenylmethylsulfonyl fluoride (PMSF) and diisopropylfluorophosphate (DFP) bond to the OH group of the serine in the active center of serine proteases and inhibit the latter irreversibly. Ethylene diamine tetraacetate Na2 salt (EDTA) is a metal chelating agent and inhibits metalloproteases.
470 μl 0.25 % (w/v) casein in […], pH 10--buffer (B & R)
5 μl inhibitor stock [strain]solution (see below)
When using 5 μl inhibitor stock solution the final concentration corresponds to 1 mM. When using 25 μl inhibitor solution (final concentration 5 mM), only 450 μl substrate solution are accordingly used. The batches are at first incubated without substrate at room temperature (1 h) and then with substrate for 1 h at the temperature which is optimum for the enzyme.
After the incubation the reaction is stopped with 500 μl of a 10 % (w/v) solution of trichloroacetic acid and the remaining activity determined as described above. The following inhibitor solutions are used:
PMSF 17.3 % (w/v) in ethanol
EDTA 3.56 % (w/v) in H2 O bidistillate
Iodoacetate 14.4 % (w.v) in H2 O bidistillate

Assay [3] concerns proteases of cell-free raw extract of strain W. As to the kind of experiment: Hydrolysis of chromogenic peptide substrates by the proteases (E405 value). Particulars: 17 hours at 60° C., 0.2 mM substrate in phosphate buffer pH 7, 0.3 mg/ml raw enzyme extract, measuring stretch 1 cm. The method, then: The hydrolysis of chromogenic peptide substrates by proteases of the […] (E405 value)
In order to determine the substrate specificity of the proteases the cited chromogenic peptide substrates are incubated in a final concentration of 0.2 mM together with cell-free raw extract.
The incubation takes place below the temperature optimum and pH optimum of the proteases in order to avoid a thermal and pH-dependent, non-enzymatic hydrolysis of the peptide substrates.
900 μl 0.2 mM (w/v) substrate solution in 50 mM Na-P-buffer, pH 7.0
100 μl enzyme specimen incubation for 17 h at 60° C.
The released p-nitroaniline is subsequently measured immediately against a non-incubated blank reading at an extinction of 405 nm.

The mark [4] stands for this setting: 1 h preincubation at room temperature, then 1 h with casein, pH 10, optimum temperature, without inhibitor = 100%, approximate values.

Turning to `[Na+].[Na+].[O]=[Mo](=[O])([O-])[O-]` [NcMoO4], in assay [1], the “ca. % activity 1 mM” value is reported as 91% and the “ca. % activity 5 mM” value is 95%. For the compound `[Na+].[Na+].[O]=[W](=[O])([O-])[O-]` [NaWO4], in assay [1], the “ca. % activity 1 mM” value is given as 75% and the “ca. % activity 5 mM” value is reported as 134%. For the compound `[Cl][Mn][Cl]` [MnCl2], in assay [1], the “ca. % activity 1 mM” value is reported as 110% and the “ca. % activity 5 mM” value is given as 120%. For the compound `[Cl][Fe][Cl]` [FeCl2], in assay [1], the “ca. % activity 1 mM” value stood at 127% and the “ca. % activity 5 mM” value came out at 0%. As to `O=C(O)CI` [Iodoacetate], in assay [2], the remaining activity at 1000 µM was 83% and the remaining activity at 5000 µM was found to be 76%. Consider `O=C(O)CCC(=O)N[C@@H](Cc1ccccc1)C(=O)Nc1ccc([N+](=O)[O-])cc1` [N-succinyl-Phe-pNA], for which the “E405 value (in comparison to blank value)” value (from here on “E405 value”) in assay [3] is above 0.5. Same read-out and setting: under `O=C(NCC(=O)N1CCC[C@H]1C(=O)Nc1ccc([N+](=O)[O-])cc1)OCc1ccccc1` [Z-Gly-Pro-pNA] (Cbz-Gly-Pro-pNA) stands “below 0.1”. As to `CC(=O)N[C@@H](Cc1ccc(O)cc1)C(=O)Nc1ccc([N+](=O)[O-])cc1` [acetyl-Tyr-pNA], the “E405 value” value in assay [3] is reported as “below 0.1”. As to `NCCc1ccc(S(=O)(=O)F)cc1` [Pefabloc SC], the “Residual act. (1 mM)” value in assay [2] (setting [4]) was 83%.

As to `[Cl-].[Cl-].[Zn+2]` [ZnCl2], in assay [1], the “ca. % activity 1 mM” value turned out to be 57% and the “ca. % activity 5 mM” value came to 37%.

In the case of `[Cl][Cu][Cl]` [CuCl2], in assay [1], the “ca. % activity 1 mM” value turned out to be 17% and the “ca. % activity 5 mM” value is reported as 0%.

On to `O=S(=O)([O-])[O-].[O]=[V+2]` [VOSO4], for which, in assay [1], the “ca. % activity 1 mM” value worked out at 87% and the “ca. % activity 5 mM” value was determined as 44%. For `[Cl][Ni][Cl]` [NiCl2] the same measures were 72% and 44%. For the compound `O=C(O)CN(CCN(CC(=O)O)CC(=O)O)CC(=O)O` [EDTA, Ethylene diamine tetraacetate Na2 salt], in assay [2], the remaining activity at 1000 µM is 93% and the remaining activity at 5000 µM was 85%. Take `[Ca+2].[Cl-].[Cl-]` [CaCl2]: in assay [1], the “ca. % activity 1 mM” value stood at 85% and the “ca. % activity 5 mM” value was found to be 117%. For `[Cl][Fe]([Cl])[Cl]` [FeCl3] the same measures were 93% and 0%. The like results for `[Cl-].[Cl-].[Mg+2]` [MgCl2] were, in that order, 171% and 125%. Consider `[Cl-].[Cl-].[Co+2]` [CoCl2], for which, in assay [1], the “ca. % activity 1 mM” value came out at 143% and the “ca. % activity 5 mM” value turned out to be 187%. `C[C@H](NC(=O)CCC(=O)O)C(=O)N[C@@H](C)C(=O)N1CCC[C@H]1C(=O)N[C@@H](Cc1ccccc1)C(=O)Nc1ccc([N+](=O)[O-])cc1` [N-succinyl-Ala-Ala-Pro-Phe-pNA] (Suc-AAPF-pNA): the “E405 value” value in assay [3] is reported as above 0.5. As to `[Cl-].[Na+]` [NaCl], in assay [1], the “ca. % activity 1 mM” value worked out at 86% and the “ca. % activity 5 mM” value is recorded as 116%. As for `O=S(=O)(F)Cc1ccccc1` [PMSF, Phenylmethylsulfonyl fluoride], in assay [2] (setting [4]), the “Residual act. (1 mM)” value is 14%. In addition, in assay [2] (inhibitor 5 mM, 1 h preincubation at room temperature, then 1 h with casein, pH 10, optimum temperature, without inhibitor = 100%, approximate values), the “Residual act. (5 mM)” value was 10%.

For the compound `N=C(N)NCCCC(NC(=O)c1ccccc1)C(=O)Nc1ccc([N+](=O)[O-])cc1` (racemic) [benzoyl-DL-Arg-pNA], the “E405 value” value in assay [3] was “below 0.1”. Consider AgCl2, for which, in assay [1], the “ca. % activity 1 mM” value was 0% and the “ca. % activity 5 mM” value amounted to 0%. As to `NCCCC[C@H](NC(=O)c1ccccc1)C(=O)Nc1ccc([N+](=O)[O-])cc1` [benzoyl-Lys-pNA], the “E405 value” value in assay [3] is recorded as “below 0.1”. As for `O=[Se]([O-])[O-].[Na+].[Na+]` [NaSe2 O3], in assay [1], the “ca. % activity 1 mM” value came out at 96% and the “ca. % activity 5 mM” value is on record as 136%.
